Experimental data as given in patent publication US20260027145A1 (priority 2022, published 2026).
Entries after “also recorded” stand apart in the source; their conditions may differ. Read-outs that look alike come from different tables or passages of the source.

Experiments:
IFITM1 [1] = assay type: cell-based, human
CD8+ cells = assay type: cell-based, human
resting pan-T cells [2] = assay type: cell-based, human
resting pan-T cells [3] = tested on: resting pan-T cells
IFITM1 [4] = assay type: cell-based, human; remark: listed apart in the source
IFITM1 [5] = assay type: cell-based, human; remark: listed apart in the source
pSAMHD1 = assay type: cell-based, human
resting pan-T cells [6] = assay type: cell-based, human; remark: listed apart in the source
[7] = tested on: phosphorylated SAMHD1 (pSAMHD1); assay type: cell-based, human; conditions: CD4+ and CD8+ T cells; for proportion of pSAMHD1 to total SAMHD1: IL-7 15 ng/mL, IL-15 15 ng/mL or both
Description: The effect of IL-7 and IL-15 on phosphorylated SAMHD1 (pSAMHD1) and IFITM1 expression was assessed. CD4+ and CD8+ T cells were treated with either IL-2 (100 U/mL), IL-15 (15 ng/mL), IL-7 (15 ng/mL), or a composition comprising both IL-7 and IL-15. Cells were activated with anti-CD3/[…] antibody coated beads at a ratio of 3:1, and then cells were assessed for expression of IFITM1 or pSAMHD1. Aggregate densitometry across multiple donors are shown in FIG. 3A (CD8+) and FIG. 3B (CD4+), while representative western blots are also depicted in FIG. 3C (CD8+) and FIG. 3D (CD4+).

IFITM1 [8] = assay type: cell-based, human; remark: listed apart in the source

For CO[C@H]1C[C@@H]2CC[C@@H](C)[C@@](O)(O2)C(=O)C(=O)N2CCCC[C@H]2C(=O)O[C@H]([C@H](C)C[C@@H]2CC[C@@H](OC(=O)C(C)(CO)CO)[C@H](OC)C2)CC(=O)[C@H](C)/C=C(\C)[C@@H](O)[C@@H](OC)C(=O)[C@H](C)C[C@H](C)/C=C/C=C/C=C/1C [TEM, temsirolimus], the IFITM1 protein expression (IFITM1 [1]) was “pronounced loss of IFITM1 protein expression”, the “transduction efficiency (viral copy number per diploid genome)” value (CD8+ cells) was “Increased transduction efficiency” and the “transduction of the GFP transgene (% GFP)” value (resting pan-T cells [2]) was “enhance transduction”. For the same molecule, the CD3 number (resting pan-T cells [3]) was “remained generally consistent” and the “CD8 and CD4 T-cells (cell counts)” value (resting pan-T cells [3]) was “reduced”.

In the case of C[C@@H]1[C@H](O)[C@@H](C)/C=C/C=C/C=C/C=C/C=C/C=C/C=C/[C@H](O[C@@H]2O[C@H](C)[C@@H](O)[C@H](N)[C@@H]2O)C[C@@H]2O[C@](O)(C[C@@H](O)C[C@@H](O)[C@H](O)CC[C@@H](O)C[C@@H](O)CC(=O)O[C@H]1C)C[C@H](O)[C@H]2C(=O)O [AmphoB, Amphotericin B], the “restriction factor IFITM1 (western blot)” value (IFITM1 [4]) is reported as “inactivation or loss”, the “concentrations at which gain in transduction efficiency is seen” value (resting pan-T cells [2]) is reported as ≥ 0.1 µM and the “transduction efficiency (% GFP)” value (resting pan-T cells [2]) is reported as “increased transduction efficiency”. The “CD8 and CD4 cell number” value (resting pan-T cells [3]) was “slightly reduced”.

With IL-7: recombinant cytokine the IFITM1 expression (IFITM1 [5]) was “similarly increased”, the “transduction efficiency (% GFP) with cytokine pretreatment” value (resting pan-T cells [2]) was “positively impact transduction; also recorded: increased transduction efficiency” and the pSAMHD1 levels (pSAMHD1) was “increase in pSAMHD1 levels”. The “transduction efficiency (% GFP)” value (resting pan-T cells [6]) was “did not lead to dose-dependent differences in transduction efficiency”, the “levels of pSAMHD1” value ([7]; IL-7 15 ng/mL pre-treatment) was “increased levels of pSAMHD1” and the “proportion of pSAMHD1 to total SAMHD1” value [7] was “increased”. For the same molecule, the “cytotoxicity (Nalm6 loss related to untransduced controls)” value (Nalm6 cells) was “Increased cytotoxicity”.

For IL-15: recombinant cytokine, the IFITM1 expression (IFITM1 [5]) was “similarly increased” and the “proportion of pSAMHD1 to total SAMHD1” value [7] was “increased”.

For CO[C@H]1C[C@@H]2CC[C@@H](C)[C@@](O)(O2)C(=O)C(=O)N2CCCC[C@H]2C(=O)O[C@H]([C@H](C)C[C@@H]2CC[C@@H](O)[C@H](OC)C2)CC(=O)[C@H](C)/C=C(\C)[C@@H](O)[C@@H](OC)C(=O)[C@H](C)C[C@H](C)/C=C/C=C/C=C/1C [rapamycin], the “downregulation of IFITM1 expression” value (IFITM1 [8]) was 20-35% and the “reduction of IFITM1 expression” value (IFITM1 [8]) was 5-40%.
